Key:
Details in all cases: 72 h
HDQ-P1 = tested on: HDQ-P1
How it was run: (§1)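 Viability of breast cancer cell lines was measured with CellTiter-Blue after 72 h of incubation on compound-loaded 384-well plates. Cells were seeded in 20 µl onto compound dissolved in 5 µl medium, and 2.5 µl reagent was added for 2 h at 37 °C before reading at 560/590 nm. EC50 was fitted from percent-inhibition dose-response data censored at the highest concentration, normalised per plate to vehicle and a positive kill control, with zero drug sensitivity score rows dropped.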

MDA-MB-453 = tested on: MDA-MB-453
How it was run: as §1

CAL-85-1 = tested on: CAL-85-1
How it was run: as §1

CAL-51 = tested on: CAL-51
How it was run: as §1

DU-4475 = tested on: DU-4475
How it was run: as §1

Row | Structure (SMILES) | EC50, CellTiter-Blue viability (MDA-MB-453) [µM] | EC50, CellTiter-Blue viability (HDQ-P1) [µM] | EC50, CellTiter-Blue viability (CAL-85-1) [µM] | EC50, CellTiter-Blue viability (CAL-51) [µM] | EC50, CellTiter-Blue viability (DU-4475) [µM]
1 | CO[C@H]1C[C@@H]2CC[C@@H](C)[C@@](O)(O2)C(=O)C(=O)N2CCCC[C@H]2C(=O)O[C@H]([C@H](C)C[C@@H]2CC[C@@H](OP(C)(C)=O)[C@H](OC)C2)CC(=O)[C@H](C)/C=C(\C)[C@@H](O)[C@@H](OC)C(=O)[C@H](C)C[C@H](C)/C=C/C=C/C=C/1C [Ridaforolimus] | 0.00059 | 0.00388 | 0.00017 | 0.00165 | 0.00113
2 | COc1cc2/c(=N/c3ccc(Br)cc3F)nc[nH]c2cc1OCC1CCN(C)CC1 [Vandetanib] | 4.64 | 0.191 | 2.59 | 2.9 | –
3 | Cc1cc(Nc2cc(CN3CCOCC3)c3nc(C)c(Cc4ccc(Cl)cc4F)n3n2)n[nH]1 | 0.851 | 0.93 | 2.65 | 2.15 | 2.13
4 | CN(C)c1nc(N(C)C)nc(N(C)C)n1 [Altretamine] | 6.88 | – | 9.54 | – | –
5 | O=C(Nc1ccncc1)C(=O)c1cn(Cc2ccc(Cl)cc2)c2ccccc12 [Indibulin] | 0.0361 | 0.0725 | 0.201 | 0.631 | 1.53
6 | O=C(/C=C/c1cccc(S(=O)(=O)Nc2ccccc2)c1)NO [Belinostat] | 0.125 | 0.488 | 0.666 | 1.17 | 0.478
7 | COc1cc(OC2CCN(C)CC2)ccc1Nc1ncc2c(n1)n(C1CCCC1)c(=O)n2C [AZ 3146] | 6.4 | – | 3.24 | 1.39 | 5.18
8 | Cc1[nH]c2ccccc2c1CCNCc1ccc(/C=C/C(=O)NO)cc1 [Panobinostat] | 0.00443 | 0.035 | 0.0238 | 0.0497 | 0.0182
9 | COCC[n+]1c2c(n(Cc3cnccn3)c1C)C(=O)c1ccccc1C2=O [YM155] | 0.00699 | 0.0115 | 0.00698 | 0.0202 | 0.114
10 | CCc1c2c(nc3ccc(OC(=O)N4CCC(N5CCCCC5)CC4)cc13)-c1cc3c(c(=O)n1C2)COC(=O)[C@]3(O)CC [Irinotecan] | 4.75 | > 10 | 3.51 | 2.94 | 2.55

Now from value to compound, other results behind:

Row | EC50, CellTiter-Blue viability (MDA-MB-453) [µM] | Structure (SMILES) | EC50, CellTiter-Blue viability (HDQ-P1) [µM] | EC50, CellTiter-Blue viability (CAL-85-1) [µM] | EC50, CellTiter-Blue viability (CAL-51) [µM] | EC50, CellTiter-Blue viability (DU-4475) [µM]
11 | 5.03 | COc1cc2ncnc(Nc3ccc(F)c(Cl)c3)c2cc1OCCCN1CCOCC1 [Gefitinib] | 3.33 | – | – | –
12 | 3.18 | COC(=O)c1ccc2c(c1)NC(=O)/C2=C(\Nc1ccc(N(C)C(=O)CN2CCN(C)CC2)cc1)c1ccccc1 [BIBF 1120] | 5.93 | 6.44 | 1.4 | 6.94
13 | 0.532 | Nc1cc(C(F)(F)F)c(-c2cc(N3CCOCC3)nc(N3CCOCC3)n2)cn1 [BKM-120] | 1.26 | 1.31 | 0.922 | 2.26
14 | 2.74 | CNC(=O)c1cc(Oc2ccc(NC(=O)Nc3ccc(Cl)c(C(F)(F)F)c3)c(F)c2)ccn1 [Regorafenib] | – | – | 2.74 | 3
15 | 0.0863 | CC(C)C[C@@H](C(=O)N[C@H](C(=O)OC1CCCC1)c1ccccc1)[C@H](O)C(=O)NO [Tosedostat] | 0.268 | 2.94 | 6.03 | 0.126
